Data as given in patent publication US11098081B2, “Epitope tag and method for detection and/or purification of tagged polypeptides” (ChromoTek GmbH, priority 2015, dated 2021).
One block for each substance: values may come before it. Ends that are not written are not given here.

Legend:
BC2 nanotrap [1] = experiment: Immunoprecipitation of BC2-tagged GFP from E. coli lysate with the BC2 nanotrap; format: binding; settings: soluble protein fraction of E. coli, SDS-PAGE, Coomassie and/or anti-GFP immunoblot
BC2-Nb = experiment: Biolayer interferometry of immobilised biotinylated BC2T peptides with BC2-Nb; format: binding, Vicugna pacos; settings: for kon (M^−1s^−1): association rate constant; for Kd: biotinylated peptide on Streptavidin biosensor, BC2-Nb 5-50 nM, 1:1 binding model; for koff (s^−1): dissociation rate constant
Procedure: Biolayer interferometry (BLI)-based affinity measurements were used to assess two improved variations of the original BC2T sequence (a: […], pTag1 SEQ ID NO:33, b. […], pTag2 SEQ ID NO:34) in comparison with the original BC2T sequence (c: BC2T SEQ ID NO:4) BC2T and improved variations thereof were synthesized as peptides with an N-terminal biotin attached through an ethylene glycol linker and immobilised on Streptavidin biosensors. Binding kinetics were analysed by incubating immobilised peptides with 4-5 concentrations of BC2-Nb (5-50 nM) and evaluated using a 1:1 binding model.
Listed are the dissociation constant (KD), the association […] and dissociation (koff) rate constants and markers of the quality of fit of a 1:1 binding model (χ^2, R^2). The constants reported for original BC2T differ from those listed in Table 1 because kinetics were analysed using a different method.
The affinity measurements of BC2-Nb to BC2T and improved variations pTag1 and pTag2 were performed using biolayer interferometry using a BLItz system instrument (fortéBIO). Biotinylated peptide of BC2T and its variations were immobilised on Streptavidin biosensors (fortéBIO). The loaded sensor was sequentially dipped into BLItz buffer (phosphate buffered saline, 0.1% (m/v) BSA, 0.02% (v/v) Tween20) for 120 s to determine base line signal, in a solution of BC2-Nb in BLItz buffer (concentration of 5-50 nM) for 120 s to determine association and in BLItz buffer for 600 s to determine dissociation. The shaking rate was 1200 rpm. As a reference, each peptide was also incubated with BLItz buffer only according to the protocol above. In a control experiment, Streptavidin biosensors were incubated with BC2-Nb without prior peptide immobilisation. The sensor was regenerated by sequential dips into 10 mM glycine pH 2.0 and BLItz buffer (repeated three times). Raw data were analysed using the software BLItz Pro (fortéBio) and a 1:1 binding model.

BC2 nanotrap [2] = experiment: Elution of bound BC2-tagged protein from the BC2 nanotrap; format: binding; settings: for GFPBC2T detected in elution fraction: competitive elution
Procedure: […] Aliquots of released (R) and bound (B) fractions were analyzed by immunoblotting with an anti-GFP antibody.
For the elution experiments 40 μl of BC2 nanotrap (slurry) were incubated with 400 μl soluble protein extract (c=1 mg/ml) derived from E. coli cells expressing GFPBC2T for 1 h at 4° C. on an end-over-end rotor. After a centrifugation step (2500×g, 4° C., 2 min) the supernatant was discarded and the beads were washed four times in ice-cold PBS including a cup change after the second washing step. Subsequently, beads were pelleted and incubated with 80 μl of the indicated elution conditions for 15 min at RT. […] 0.1 mM or 1 mM BC2-peptide dissolved in 0.2 M Tris/Cl pH 7.4, 150 mM NaCl; acidic elution: 0.2 M Glycine-HCl adjusted to pH 1. pH 2 or pH 3; alkaline elution: 0 mM. 1 mM, 10 mM or 100 mM NaOH; elution with sodium thiocyanate. 0 M, 1 M, 2 M, or 3 M NaSCN. The eluates were collected and boiled in 1×SDS containing sample buffer and the remaining beads were washed twice in PBS before boiling in 40 μl 2× sample buffer. 10% of each elution (release, R) and bead bound (bound, B) fraction were analyzed by SDS-PAGE and immunoblotting using an anti-GFP antibody.

BC2 nanotrap [3] = experiment: Immunoprecipitation of BC2-tagged proteins from HEK293T cell lysates with the BC2 nanotrap; format: binding; settings: soluble protein fraction of HEK293T cells, immunoblot
Procedure: (d) The BC2 nanotrap binds BC2-tagged proteins from human cell lysates irrespectively whether the BC2 tag is located at the N- or the C-terminus. For immunoprecipitation of BC2-tagged proteins soluble protein fractions of HEK293T cells expressing BC2TeGFP, eGFPBC2T or solely eGFP were incubated with the BC2 nanotrap as described in (a). Input (I), non-bound (NB) and bound fractions (B) were separated by SDS-PAGE and visualized either by Coomassie Blue staining (top) or immunoblot analysis (bottom).
(a) For immunoprecipitation soluble protein fractions of HEK293T cells either expressing eGFP-PCNA (control) or BC2-tagged eGFP-PCNA (eGFP-PCNABC2T) (left panel) or mCherry-Vimentin (mCherry-VIM, control) or BC2-lagged mCherry-VIM (mCherry-VIMBC2T) were incubated with the BC2 nanotrap. Input (I), non-bound (NB) and bound fractions (B) were separated by SDS-PAGE and visualized either by immunoblot analysis using anti-PCNA or anti-Vimentin antibodies (upper panel). As loading control, blots were probed with an anti-GAPDH antibody (lower panel).
The BC2-capture system was further analyzed for one-step purification of recombinant proteins derived from human cells Specifically, it was investigated whether the terminal position of the BC2-tag has an impact on binding. […]
Next, it was tested whether the BC2 nanotrap can precipitate BC2-tagged cellular components of the intermediate filaments or the nuclear replication machinery BC2T was genetically fused either to mCherry-vimentin (mCherry-VIMBC2T) or eGFP-PCNA (eGFP-PCNABC2T) and both constructs were expressed in HEK293T cells. […] Soluble protein extracts were incubated with the BC2 nanotrap and whole lysate (input), non-bound and bound fractions were analyzed by immunoblotting using anti-vimentin or anti-PCNA antibodies. […]
HEK293T cells transiently expressing eGFP, eGFPBC2T or BC2TeGFP, eGFP-PCNA, eGFP-PCNABC2T, mCherry-Vimentin, mCherry-VimentinBC2T were washed and harvested in phosphate buffered saline (PBS), snap-frozen in liquid nitrogen and stored at −20° C. Cell pellets were homogenized in 200 μl lysis buffer (10 mM Tris/Cl pH 7.3, 150 mM NaCl, 0.5% NP40, 1 μg DNaseI, 2 mM MgCl2, 2 mM PMSF, 1× protease inhibitor mix M (Serva) by repealed pipetting for 40 min on ice. After a centrifugation step (10 min at 18.000×g) the protein concentration of each lysate was determined using a Pierce BCA Protein Assay Kit (Thermo Fisher Scientific) according to manufacturer's protocol and the protein solutions were adjusted with dilution buffer (10 mM Tris/Cl pH 7.5, 150 mM NaCl, 2 mM PMSF) to a concentration of 1 mg/ml, 2% of the supernatant were added to SDS-containing sample buffer (referred to as input). […] Samples were analyzed by SDS-PAGE followed by immunoblotting. […]

Sequence of BC2 nanotrap (as listed by the source): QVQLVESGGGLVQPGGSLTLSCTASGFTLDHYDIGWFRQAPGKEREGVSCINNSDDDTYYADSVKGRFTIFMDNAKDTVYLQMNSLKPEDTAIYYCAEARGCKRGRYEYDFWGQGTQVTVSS
Sequence of BC2-Nb (as listed by the source): as above

Substance: GFPBC2T-10: GFP C-terminally fused to BC2T-10 ({GFP}-PDRKAAVSHW; also: BC2T-10 tag fused to the C-terminus of GFP)
- precipitation by the BC2 nanotrap from E. coli lysate (BC2 nanotrap [1]): in a comparable manner as GFP tagged with the original BC2T

- Kd (BC2-Nb): 1.9 nM
Substance: ADRVRAVSHWSS [pTag2]
- kon (M^−1s^−1) (BC2-Nb): 1.1 ± 0.1 × 10^5 M^−1s^−1
- koff (s^−1) (BC2-Nb): 2.0 ± 0.1 × 10^−4 s^−1

Substance: GFPBC2T: GFP with a C-terminal BC2 tag, expressed in E. coli
- precipitation by the BC2 nanotrap from E. coli lysate (BC2 nanotrap [1]): quantitatively precipitates
- elution with MgCl2 (BC2 nanotrap [2]; MgCl2 0.5 M-4 M, data not shown): does not elute
- release of bound protein (BC2 nanotrap [2]; alkaline elution, pH 11 and 12): 40-80%

Substance: eGFP-PCNABC2T: BC2T genetically fused to the C-terminus of eGFP-PCNA
- precipitation by the BC2 nanotrap from HEK293T lysate (BC2 nanotrap [3]): efficiently precipitated

Substance: GFPBC2T-8: GFP C-terminally fused to BC2T-8 ({GFP}-RKAAVSHW; also: BC2T-8 tag fused to the C-terminus of GFP)
- precipitation by the BC2 nanotrap from E. coli lysate (BC2 nanotrap [1]): in a comparable manner as GFP tagged with the original BC2T

Substance: mCherry-VIMBC2T: BC2T genetically fused to the C-terminus of mCherry-Vimentin
- precipitation by the BC2 nanotrap from HEK293T lysate (BC2 nanotrap [3]): efficiently precipitated

Substance: eGFPBC2T: modified GFP comprising the BC2-tag on the C-terminus, expressed in HEK293T cells (eGFP-PDRKAAVSHWQQ; also: BC2 tag fused to the C-terminus of eGFP)
- precipitation by the BC2 nanotrap from HEK293T lysate (BC2 nanotrap [3]): efficiently precipitated

Substance: RKAAVSHW (Epitope peptide 8 aa) [BC2T-8]
- precipitation by the BC2 nanotrap from E. coli lysate (BC2 nanotrap [1]): efficiently recognized

Substance: PDRKAAVSHWQQ [BC2T]
- kon (M^−1s^−1) (BC2-Nb): 1.9 ± 0.1 × 10^5 M^−1s^−1
- Kd (BC2-Nb): 2.6 nM
- koff (s^−1) (BC2-Nb): 5.0 ± 0.1 × 10^−4 s^−1
- GFPBC2T detected in elution fraction (BC2 nanotrap [2]; 0.1 mM BC2 peptide): ~60%
- GFPBC2T detected in elution fraction (BC2 nanotrap [2]; 1 mM BC2 peptide): ~80%

- Kd (BC2-Nb): 0.7 nM
Substance: PDRVRAVSHWSS [pTag1]
- dissociation rate constant koff slower than for original BC2T (BC2-Nb): 7 ×
- kon (M^−1s^−1) (BC2-Nb): 9.2 ± 0.5 × 10^4 M^−1s^−1
- koff (s^−1) (BC2-Nb): 6.8 ± 0.4 × 10^−5 s^−1

Substance: PDRKAAVSHW (Epitope peptide 10 aa) [BC2T-10]
- precipitation by the BC2 nanotrap from E. coli lysate (BC2 nanotrap [1]): efficiently recognized

Substance: BC2TeGFP: modified GFP comprising the BC2-tag on the N-terminus, expressed in HEK293T cells (PDRKAAVSHWQQ-eGFP; also: BC2 tag fused to the N-terminus of eGFP)
- precipitation by the BC2 nanotrap from HEK293T lysate (BC2 nanotrap [3]): efficiently precipitated
